# Measurements: US4801606A (priority 1987, dated 1989)
# Where two headings read alike, the source gives them in different places.
# Tests used:
# Candida albicans = test: microbe, parasite or virus in culture
# [1] = as described in British patent specification Nos. 1,078,049 and 932,875; cited from earlier work
SMILES,MIC (Candida albicans) [µg/mL],VSV CYT (CV-1 cells; 0.2 ug/well) [LS],VSV CYT (CV-1 cells; 2 ug/well) [LS],VSV CYT (CV-1 cells; 20 ug/well) [LS],antimitotic activity [1]
"C=C1CC(OC)(C(O)C(=O)NC2OCOC3C2OC(CC(O)CCC/C=C/C=C/C=C/C(=O)NC(CCCNC(=N)N)C(=O)O)C(C)(C)C3OC)OC(C)C1C (stereo not shown) [Onnamide A (1), onnamide A]",50,0,0,0,
"C=C1CC(OC)(C(O)C(=O)NC2OCOC3C2OC(CC(O)CCC/C=C/C=C/C=C/C(=O)NC(CCCNC(=N)N)C(=O)OC)C(C)(C)C3OC)OC(C)C1C (stereo not shown) [Methyl ester (2), Methyl ester of onnamide A]",5,,,,
C=C1CC(OC)(C(O)C(=O)NC2OCOC3C2OC(CC(O)CCC/C=C/C=C/C=C/C(=O)NC(CCCNc2nc(C)cc(C)n2)C(=O)O)C(C)(C)C3OC)OC(C)C1C (stereo not shown) [Pyrimidine derivative (3)],50,,,,
C=C1CC(OC)(C(O)C(=O)NC(OC)C2CC(O)C(C)(C)C(CC(COC)OC)O2)OC(C)C1C (stereo not shown) [Pederin],,,,,antimitotic activity
